Results on 19 compounds are retold here after patent US20230203026A1, “PESTICIDAL COMPOSITIONS AND METHODS” (CORTEVA AGRISCIENCE LLC, priority 2017, published 2023).

Experiment [1] concerns Cabbage Looper (Trichloplusia ni, TRIPNI) ("CL"). Kind of experiment: Insecticidal test for cabbage looper, 128-well diet tray assay. In kind it is in vivo. Conditions: Trichoplusia ni, 168 h; 50 μg/cm^2 of test compound on artificial diet; second instar CL larvae; 25° C.; five to seven days; average of eight wells; read-out: CL % Control (or Mortality) rating. On the procedure:
Insecticidal Test for Cabbage Looper (Trichloplusia ni, TRIPNI) (“CL”)
(§1) Bioassays on cabbage looper (CL; Trichloplusia ni: Lepidoptera) are conducted using a 128-well diet tray assay. One to five second instar CL larvae are placed in each well (3 mL) of the diet tray that had been previously filled with 1 mL of artificial diet to which 50 μg/cm^2 of the test compound (dissolved in 50 μL of 90:10 acetone-water mixture) had been applied (to each of eight wells) and then allowed to dry. Trays are covered with a clear self-adhesive cover, vented to allow gas exchange, and held at 25° C., 14:10 light-dark for five to seven days. Percent mortality is recorded for the larvae in each well; activity in the eight wells is then averaged.

Experiment [2] has as its system beet armyworm (Spodoptera exigua, LAPHEG) ("BAW"). In words: Insecticidal test for beet armyworm, 128-well diet tray assay. Conditions: 168 h, 50 μg/cm^2 of test compound on artificial diet, second instar BAW larvae, 25° C., five to seven days, average of eight wells, read-out: BAW % Control (or Mortality) rating. In kind it is in vivo. On the procedure: Insecticidal test for beet armyworm (Spodoptera exigua, LAPHEG) (“BAW”)
as §1, with “beet armyworm (BAW; Spodoptera exigua:” for “cabbage looper (CL; Trichloplusia ni:”, “BAW” for “CL”

Turning to `COc1ccc(CC(F)(F)F)c(N2C(=O)CS/C2=N\C(=O)NOCc2ccc(-c3ncn(-c4ccc(OC(F)(F)F)cc4)n3)cc2)c1` [A25, (Z)-1-(3-(5-Methoxy-2-(2,2,2-trifluoroethyl)phenyl)-4-oxothiazolidin-2-ylidene)-3-((4-(1-(4-(trifluoromethoxy)phenyl)-1H-1,2,4-triazol-3-yl)benzyl)oxy)urea], the mortality at 50 µg/cm2 in experiment [1] and in experiment [2] was 50 to 100% in each case.

Turning to `COCc1ccc(C)cc1N1C(=O)CS/C1=N\C(=O)NOCc1ccc(-c2ncn(-c3ccc(OC(F)(F)F)cc3)n2)cc1` [A27, (Z)-1-(3-(2-(Methoxymethyl)-5-methylphenyl)-4-oxothiazolidin-2-ylidene)-3-((4-(1-(4-(trifluoromethoxy)phenyl)-1H-1,2,4-triazol-3-yl)benzyl)oxy)urea], the mortality at 50 µg/cm2 in experiment [1] and in experiment [2] was 50 to 100% each time.

As to `Cc1ccc(OCC(F)(F)F)c(N2C(=O)CS/C2=N\C(=O)NOCc2ccc(-c3ncn(-c4ccc(OC(F)(F)F)cc4)n3)cc2)c1` [A30, (Z)-1-(3-(5-Methyl-2-(2,2,2-trifluoroethoxy)phenyl)-4-oxothiazolidin-2-ylidene)-3-((4-(1-(4-(trifluoromethoxy)phenyl)-1H-1,2,4-triazol-3-yl)benzyl)oxy)urea], the mortality at 50 µg/cm2 in experiment [1] and in experiment [2] was 50 to 100% each time.

Consider `Cc1ccc(C(C)C)c(N2C(=O)CS/C2=N\C(=O)NNC(C)c2ccc(-c3ncn(-c4ccc(OC(F)(F)F)cc4)n3)cc2)c1` (centres unmarked) [A9, (Z)—N-(3-(2-Isopropyl-5-methylphenyl)-4-oxothiazolidin-2-ylidene)-2-(1-(4-(1-(4-(trifluoromethoxy)phenyl)-1H-1,2,4-triazol-3-yl)phenyl)ethyl)hydrazine-1-carboxamide], for which the mortality at 50 µg/cm2 in experiment [1] and in experiment [2] was 50 to 100% in each case.

Consider `CC(C)c1ccc(Cl)cc1N1C(=O)CS/C1=N\C(=O)NNC(C)c1ccc(-c2ncn(-c3ccc(OC(F)(F)F)cc3)n2)cc1` (centres unmarked) [A8, (Z)—N-(3-(5-Chloro-2-isopropylphenyl)-4-oxothiazolidin-2-ylidene)-2-(1-(4-(1-(4-(trifluoromethoxy)phenyl)-1H-1,2,4-triazol-3-yl)phenyl)ethyl)hydrazine-1-carboxamide], for which the mortality at 50 µg/cm2 in experiment [1] and in experiment [2] was 50 to 100% throughout.

In the case of `Cc1ccc(Cl)c(N2C(=O)CS/C2=N\C(=O)NOCc2ccc(-c3ncn(-c4ccc(OC(F)(F)F)cc4)n3)cc2)c1` [A22, (Z)-1-(3-(2-Chloro-5-methylphenyl)-4-oxothiazolidin-2-ylidene)-3-((4-(1-(4-(trifluoromethoxy)phenyl)-1H-1,2,4-triazol-3-yl)benzyl)oxy)urea], the mortality at 50 µg/cm2 in experiment [1] and in experiment [2] was 50 to 100% each time.

As to `CC(C)c1ccc(Cl)cc1N1C(=O)CS/C1=N\C(=O)NOC(C)c1ccc(-c2ncn(-c3ccc(OC(F)(F)F)cc3)n2)cc1` (centres unmarked) [A21, (Z)-1-(3-(5-Chloro-2-isopropylphenyl)-4-oxothiazolidin-2-ylidene)-3-(1-(4-(1-(4-(trifluoromethoxy)phenyl)-1H-1,2,4-triazol-3-yl)phenyl)ethoxy)urea], the mortality at 50 µg/cm2 in experiment [1] and in experiment [2] was 50 to 100% each time.

As to `CCCc1ccc(OC)cc1N1C(=O)CS/C1=N\C(=O)NOC(C)c1ccc(-c2ncn(-c3ccc(OC(F)(F)F)cc3)n2)cc1` (centres unmarked) [A15, (Z)-1-(3-(5-Methoxy-2-propylphenyl)-4-oxothiazolidin-2-ylidene)-3-(1-(4-(1-(4-(trifluoromethoxy)phenyl)-1H-1,2,4-triazol-3-yl)phenyl)ethoxy)urea], the mortality at 50 µg/cm2 in experiment [1] and in experiment [2] was 50 to 100% throughout.

Turning to `Cc1ccc(C(C)C)c(N2C(=O)CS/C2=N\C(=O)NOC(C)c2ccc(-c3ncn(-c4ccc(OC(F)(F)C(F)(F)F)cc4)n3)cc2)c1` (centres unmarked) [A34, (Z)-1-(3-(2-Isopropyl-5-methylphenyl)-4-oxothiazolidin-2-ylidene)-3-(1-(4-(1-(4-(perfluoroethoxy)phenyl)-1H-1,2,4-triazol-3-yl)phenyl)ethoxy)urea], the mortality at 50 µg/cm2 in experiment [1] and in experiment [2] was 50 to 100% each time.

Consider `Cc1ccc(C(C)C)c(N2C(=O)CS/C2=N\C(=O)NN(C)Cc2ccc(-c3ncn(-c4ccc(OC(F)(F)F)cc4)n3)cc2)c1` [A4, (Z)—N-(3-(2-isopropyl-5-methylphenyl)-4-oxothiazolidin-2-ylidene)-2-methyl-2-(4-(1-(4-(trifluoromethoxy)phenyl)-1H-1,2,4-triazol-3-yl)benzyl)hydrazine-1-carboxamide], for which the mortality at 50 µg/cm2 in experiment [1] and in experiment [2] was 50 to 100% each time.

Regarding `COc1ccc(C(C)C)c(N2C(=O)CS/C2=N\C(=O)NOCc2ccc(-c3ncn(-c4ccc(OC(F)(F)F)cc4)n3)cc2)c1` [A26, (Z)-1-(3-(2-Isopropyl-5-methoxyphenyl)-4-oxothiazolidin-2-ylidene)-3-((4-(1-(4-(trifluoromethoxy)phenyl)-1H-1,2,4-triazol-3-yl)benzyl)oxy)urea], the mortality at 50 µg/cm2 in experiment [1] and in experiment [2] was 50 to 100% in each case.

As for `CC(C)c1ccccc1N1C(=O)CS/C1=N\C(=O)NOC(C)c1ccc(-c2ncn(-c3ccc(OC(F)(F)F)cc3)n2)cc1` (centres unmarked) [A18, (Z)-1-(3-(2-Isopropylphenyl)-4-oxothiazolidin-2-ylidene)-3-(1-(4-(1-(4-(trifluoromethoxy)phenyl)-1H-1,2,4-triazol-3-yl)phenyl)ethoxy)urea], the mortality at 50 µg/cm2 in experiment [1] and in experiment [2] was 50 to 100% each time.

Consider `Cc1ccc(OCC(F)(F)F)c(N2C(=O)CS/C2=N\C(=O)NOC(C)c2ccc(-c3ncn(-c4ccc(OC(F)(F)F)cc4)n3)cc2)c1` (centres unmarked) [A19, (Z)-1-(3-(5-Methyl-2-(2,2,2-trifluoroethoxy)phenyl)-4-oxothiazolidin-2-ylidene)-3-(1-(4-(1-(4-(trifluoromethoxy)phenyl)-1H-1,2,4-triazol-3-yl)phenyl)ethoxy)urea], for which the mortality at 50 µg/cm2 in experiment [1] and in experiment [2] was 50 to 100% in each case.

On to `Cc1ccc(OCC(F)(F)F)c(N2C(=O)CS/C2=N\C(=O)NNC(C)c2ccc(-c3ncn(-c4ccc(OC(F)(F)F)cc4)n3)cc2)c1` (centres unmarked) [A6, (Z)—N-(3-(5-Methyl-2-(2,2,2-trifluoroethoxy)phenyl)-4-oxothiazolidin-2-ylidene)-2-(1-(4-(1-(4-(trifluoromethoxy)phenyl)-1H-1,2,4-triazol-3-yl)phenyl)ethyl)hydrazine-1-carboxamide], for which the mortality at 50 µg/cm2 in experiment [1] and in experiment [2] was 50 to 100% throughout.

On to `Cc1ccc(C(C)C)c(N2C(=O)CS/C2=N\C(=O)NOCc2ccc(-c3ncn(-c4ccc(OC(F)(F)F)cc4)n3)cc2)c1` [A28, (Z)-1-(3-(2-Isopropyl-5-methylphenyl)-4-oxothiazolidin-2-ylidene)-3-((4-(1-(4-(trifluoromethoxy)phenyl)-1H-1,2,4-triazol-3-yl)benzyl)oxy)urea], for which the mortality at 50 µg/cm2 in experiment [1] and in experiment [2] was 50 to 100% in each case.

Take `CC(C)c1ccc(Cl)cc1N1C(=O)CS/C1=N\C(=O)NOCc1ccc(-c2ncn(-c3ccc(OC(F)(F)F)cc3)n2)cc1` [A32, (Z)-1-(3-(5-Chloro-2-isopropylphenyl)-4-oxothiazolidin-2-ylidene)-3-((4-(1-(4-(trifluoromethoxy)phenyl)-1H-1,2,4-triazol-3-yl)benzyl)oxy)urea]: the mortality at 50 µg/cm2 in experiment [1] and in experiment [2] was 50 to 100% throughout.

Regarding `Cc1ccc(C(F)(F)F)c(N2C(=O)CS/C2=N\C(=O)NOCc2ccc(-c3ncn(-c4ccc(OC(F)(F)F)cc4)n3)cc2)c1` [A24, (Z)-1-(3-(5-Methyl-2-(trifluoromethyl)phenyl)-4-oxothiazolidin-2-ylidene)-3-((4-(1-(4-(trifluoromethoxy)phenyl)-1H-1,2,4-triazol-3-yl)benzyl)oxy)urea], the mortality at 50 µg/cm2 in experiment [1] and in experiment [2] was 50 to 100% each time.

Consider `Cc1ccc(C(F)(F)F)c(N2C(=O)CS/C2=N\C(=O)NN(C)C(C)c2ccc(-c3ncn(-c4ccc(OC(F)(F)F)cc4)n3)cc2)c1` (centres unmarked) [A37, (Z)-2-Methyl-N-(3-(5-methyl-2-(trifluoromethyl)phenyl)-4-oxothiazolidin-2-ylidene)-2-(1-(4-(1-(4-(trifluoromethoxy)phenyl)-1H-1,2,4-triazol-3-yl)phenyl)ethyl)hydrazine-1-carboxamide], for which the mortality at 50 µg/cm2 in experiment [1] and in experiment [2] was 50 to 100% each time.

With `Cc1ccc(C(C)C)c(N2C(=O)CS/C2=N\C(=O)ON(Cc2ccc(-c3ncn(-c4ccc(OC(F)(F)F)cc4)n3)cc2)C(=O)OC(C)(C)C)c1` [A35, tert-Butyl (Z)-(((3-(2-isopropyl-5-methylphenyl)-4-oxothiazolidin-2-ylidene)carbamoyl)oxy)(4-(1-(4-(trifluoromethoxy)phenyl)-1H-1,2,4-triazol-3-yl)benzyl)carbamate], the mortality at 50 µg/cm2 in experiment [1] and in experiment [2] was 0% each time.

Broadly, the mortality is the percentage killed.
